Measured values published in patent publication US20120095055A1, “HEXAHYDROCYCLOPENTYL[f]INDAZOLE 5-HYDROXYMETHYL ETHANOLS AND DERIVATIVES THEREOF AS SELECTIVE GLUCOCORTICOID RECEPTOR MODULATORS” (Merck Sharp & Dohme, Corp., priority 2009, published 2012).

Target: T1, human GR (Homo sapiens, UniProt P04150)
T1 construct: naturally expresses the human GR; endogenous in cells
T1 sequence (P04150 1-777): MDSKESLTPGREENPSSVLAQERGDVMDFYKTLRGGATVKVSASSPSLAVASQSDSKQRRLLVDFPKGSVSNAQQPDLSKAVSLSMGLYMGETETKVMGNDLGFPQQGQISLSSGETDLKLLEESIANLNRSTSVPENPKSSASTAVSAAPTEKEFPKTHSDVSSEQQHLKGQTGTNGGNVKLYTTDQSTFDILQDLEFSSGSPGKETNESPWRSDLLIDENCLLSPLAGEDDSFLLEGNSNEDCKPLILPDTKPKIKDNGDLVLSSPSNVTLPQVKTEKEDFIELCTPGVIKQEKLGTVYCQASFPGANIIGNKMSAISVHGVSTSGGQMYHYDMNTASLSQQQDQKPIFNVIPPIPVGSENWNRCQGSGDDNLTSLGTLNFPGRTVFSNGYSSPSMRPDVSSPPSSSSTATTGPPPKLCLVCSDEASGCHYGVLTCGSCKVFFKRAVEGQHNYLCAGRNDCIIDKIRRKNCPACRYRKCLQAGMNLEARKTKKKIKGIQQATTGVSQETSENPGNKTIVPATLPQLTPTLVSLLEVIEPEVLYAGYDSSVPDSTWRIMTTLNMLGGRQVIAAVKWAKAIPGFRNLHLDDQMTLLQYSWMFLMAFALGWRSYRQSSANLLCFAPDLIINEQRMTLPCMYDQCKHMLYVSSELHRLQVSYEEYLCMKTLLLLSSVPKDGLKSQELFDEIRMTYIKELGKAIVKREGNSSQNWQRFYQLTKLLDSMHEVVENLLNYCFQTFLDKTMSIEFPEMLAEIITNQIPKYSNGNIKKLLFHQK
Assay: Transrepression Assay (GITAR), TNFα-β-lactamase reporter in U937 cells
Type: cell-based
Conditions: for Emax: U-937, activity repressed by 100 nM dexamethasone set as 100%; for EC50: inflection point (IP), TNFα promoter β-lactamase reporter, PMA/LPS; for Transrepression U937 Cells GITAR Emax (%): activity repressed by 100 nM dexamethasone set as 100%
Excerpt: This assay assesses the ability of test compounds to control transcription from the TNFα-β-lactamase reporter gene in U937 cells, a human myelomonocytic leukemia cell line that naturally expresses the human GR. The assay measures compound dependent-repression of the TNFa promoter linked to a reporter gene.
The human U937 cells that had been stablely transfected with the TNF-α promoter driving β-lactamase are used for this assay. U937 cells contain an endogenous glucocorticoid receptor (GR). Cells are maintained in RPMI 1640 Growth medium (Gibco Cat#11875-093) containing 25 mM HEPES, 10% FBS, 2 mM L-Glutamine, 1 mM Sodium pyruvate, 25 μg/ml Gentamicin (Gibco Cat#15710-064), 1:1000 2-Mercaptoethanol (Gibco Cat#21985-023) and 0.8 mg/ml G418 (Gibco Cat#10131-027). The density of the cells in the flask needs to be about 1×106-3×10^6/ml at the time of harvest. Usually, the cells are split to 1.2˜1.4×10^5/ml (1:10) 3 days prior to the assay. 50,000 cells/well are plated in 96 well black-walled plates the day of assay. Test compounds are added 10 μL/well, and cells are incubated at 37° C. for 30˜45 min. For assaying compounds, first dilute 1:10 in DMSO to make 1 mM, then further dilute 1:100 in medium to make 10× stock prior to adding to the cells. Add 50 ng/ml PMA (Sigma, cat# P8139) 10 μL/well to a final concentration 5 ng/ml, and 1 μg/ml LPS (Sigma, cat# L4130) 10 μL/well to a final concentration 100 ng/ml. Incubate cells at 37° C. overnight for ˜18 hr. PMA is stored frozen as 100 μg/ml stock in DMSO. Dilute 1:10 in DMSO for a working stock of 10 μg/ml and store at −20 C. For assaying, dilute the 10 μg/ml working stock 1:200 in medium to make a 10× solution (50 ng/ml). Store frozen LPS at 1 mg/ml in PBS, dilute 1:1000 in medium to make 10× (1 μg/ml) for the assay. Add 6× loading buffer (CCF2-AM) 20 μL/well, and incubate at room temperature for 70˜90 min. […] The activity repressed by 100 nM dexamethasone alone is set as 100% activity.

Structure (SMILES)	Emax [%]	EC50 [nM]	Transrepression U937 Cells GITAR Emax (%)
CC(O)(C[C@]1(CO)CCC2=Cc3c(cnn3-c3ccc(F)cc3)C[C@@]21C)c1cccnc1 (single isomer, unassigned) [Example 25a]	61.3	293	–
COc1ccc(C(O)C[C@]2(CO)CCC3=Cc4c(cnn4-c4ccc(F)cc4)C[C@@]32C)nc1 (single isomer, unassigned) [Example 24a]	63	447	–
CC(C)C(O)C[C@]1(CO)CCC2=Cc3c(cnn3-c3ccc(F)cc3)C[C@@]21C (single isomer, unassigned) [Example 14b]	–	249	82.3
CC(C)C(O)C[C@]1(CO)CCC2=Cc3c(cnn3-c3ccc(F)cc3)C[C@@]21C (single isomer, unassigned) [Example 14a]	82.2	1130	–
C[C@]12Cc3cnn(-c4ccc(F)cc4)c3C=C1CC[C@@]2(CO)CC(O)c1ccccc1Cl (single isomer, unassigned) [Example 3a]	93.3	37.6	–
C[C@]12Cc3cnn(-c4ccccc4)c3C=C1CC[C@@]2(CO)CC(O)c1cccnc1 (single isomer, unassigned) [Example 29b]	–	103	60.9
C[C@]12Cc3cnn(-c4ccc(F)cc4)c3C=C1CC[C@@]2(CO)CC(O)c1cccc(C(F)(F)F)c1 (single isomer, unassigned) [Example 7b]	–	44.7	98.4
Cc1ccc(C(O)C[C@]2(CO)CCC3=Cc4c(cnn4-c4ccc(F)cc4)C[C@@]32C)cc1 (single isomer, unassigned) [Example 2a]	–	137	85.0
COc1cccnc1C(O)C[C@]1(CO)CCC2=Cc3c(cnn3-c3cccc(F)c3)C[C@@]21C (single isomer, unassigned) [Example 26a]	–	80.8	82.1
C[C@]12Cc3cnn(-c4ccc(F)cc4)c3C=C1CC[C@@]2(CO)CC(O)C1CC1 (single isomer, unassigned) [Example 20b, 1-cyclopropyl-2-[(4αS)-1-(4-fluorophenyl)-5-(hydroxymethyl)-4α-methyl-1,4,4α,5,6,7-hexahydrocyclopenta[f]indazol-5-yl]ethanol]	–	573	72.0
C[C@]12Cc3cnn(-c4ccccc4)c3C=C1CC[C@@]2(CO)CC(O)c1cccnc1 (single isomer, unassigned) [Example 29a]	66.6	176	–
C[C@]12Cc3cnn(-c4ccc(F)cc4)c3C=C1CC[C@@]2(CO)CC(O)c1cccnc1 (single isomer, unassigned) [Example 15b]	–	98.5	80.6
C[C@]12Cc3cnn(-c4cccc(F)c4)c3C=C1CC[C@@]2(CO)CC(O)c1cccnc1 (single isomer, unassigned) [Example 27a]	64.2	598	–

Now those with a lower EC50, led by results:

Emax [%]	EC50 [nM]	Transrepression U937 Cells GITAR Emax (%)	Structure (SMILES)
–	29	91.8	Cc1cccc(C(O)C[C@]2(CO)CCC3=Cc4c(cnn4-c4ccc(F)cc4)C[C@@]32C)c1 (single isomer, unassigned) [Example 5b]
104	28.2	–	C[C@]12Cc3cnn(-c4ccc(F)cc4)c3C=C1CC[C@@]2(CO)CC(O)c1ccccc1F (stereo partly drawn) [Example 4, 1-(2-fluorophenyl)-2-[(4αS,5R)-1-(4-fluorophenyl)-5-(hydroxymethyl)-4α-methyl-1,4,4α,5,6,7-hexahydrocyclopenta[f]indazol-5-yl]ethanol]
–	25.7	97.7	C[C@]12Cc3cnn(-c4ccc(F)cc4)c3C=C1CC[C@@]2(CO)CC(O)C1CCCCC1 (single isomer, unassigned) [Example 18b, 1-cyclohexyl-2-[(4αS)-1-(4-fluorophenyl)-5-(hydroxymethyl)-4α-methyl-1,4,4α,5,6,7-hexahydrocyclopenta[f]indazol-5-yl]ethanol]
89.9	21.4	–	C[C@]12Cc3cnn(-c4ccc(F)cc4)c3C=C1CC[C@@]2(CO)CC(O)c1cccc(Cl)c1 (stereo partly drawn) [Example 8, 1-(3-chlorophenyl)-2-[(4αS,5R)-1-(4-fluorophenyl)-5-(hydroxymethyl)-4α-methyl-1,4,4α,5,6,7-hexahydrocyclopenta[f]indazol-5-yl]ethanol]
93.1	7.9	–	C[C@]12Cc3cnn(-c4ccc(F)cc4)c3C=C1CC[C@@]2(CO)CC(O)C1CCCCC1 (single isomer, unassigned) [Example 18a, 1-cyclohexyl-2-[(4αS)-1-(4-fluorophenyl)-5-(hydroxymethyl)-4α-methyl-1,4,4α,5,6,7-hexahydrocyclopenta[f]indazol-5-yl]ethanol]
93	5.6	–	C[C@]12Cc3cnn(-c4ccc(F)cc4)c3C=C1CC[C@@]2(CO)CC(O)c1ccccn1 (single isomer, unassigned) [Example 1a]
91	3.9	–	C[C@]12Cc3cnn(-c4ccc(F)cc4)c3C=C1CC[C@@]2(CO)CC(O)c1ccccc1 (single isomer, unassigned) [Example 13a]
102	0.6	–	C[C@]12Cc3cnn(-c4ccc(F)cc4)c3C=C1CC[C@@]2(CO)CC(O)c1cc(F)cc(F)c1 (stereo partly drawn) [Example 9, 1-(3,5-difluorophenyl)-2-[(4αS,5R)-1-(4-fluorophenyl)-5-(hydroxymethyl)-4α-methyl-1,4,4α,5,6,7-hexahydrocyclopenta[f]indazol-5-yl]ethanol]
